Reference: patent publication US20250154686A1, “COMPOUND LIBRARY” (CHUGAI SEIYAKU KABUSHIKI KAISHA, priority 2021, published 2025)

Molecular target: T1, Bcl-2 protein (Recombinant Human Bcl-2 Protein) (Homo sapiens, UniProt P10415)
T1 construct: purchased Novus Biologicals NBP2-34889
Assay: AS-MS evaluation of binding of the Example 4 mixture library (1200 compounds/well) to Bcl-2, ASMS ratio (%)
Summary of the method: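 Recombinant human Bcl-2 at 20 μM final was exposed to a 1200-member compound pool (20 nM per compound) in pH 7.4 Tris-HCl buffer containing NaCl, Tween-20 and DTT. After 1 h at 23 °C, protein–ligand complexes passed SEC spin columns; LC/MS signals were compared with protein-free standard and blank samples to give ASMS ratio.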

[1] = AS-MS, Example 4 mixture library, Bcl-2, replicate n = 1
[2] = AS-MS, Example 4 mixture library, Bcl-2, replicate n = 2
[3] = replicate n = 1, mixture library, value belongs to the MS peak assigned to the compound
[4] = replicate n = 2, mixture library, value belongs to the MS peak assigned to the compound

T1 sequence (P10415 whole entry): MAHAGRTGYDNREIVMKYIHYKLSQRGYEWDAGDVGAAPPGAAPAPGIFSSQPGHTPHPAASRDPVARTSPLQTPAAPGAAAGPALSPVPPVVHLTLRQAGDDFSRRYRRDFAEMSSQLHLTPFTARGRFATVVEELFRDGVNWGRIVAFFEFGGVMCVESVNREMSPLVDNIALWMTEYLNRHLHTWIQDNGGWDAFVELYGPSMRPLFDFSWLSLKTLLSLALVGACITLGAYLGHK

Compound | ASMS ratio (%) n = 1 [1] | ASMS ratio (%) n = 2 [2] | ASMS ratio (%) n = 1 [3] | ASMS ratio (%) n = 2 [4]
CCOc1cncc(-c2ccc(C(=O)N3CCN(c4ccc(C(=O)NS(=O)(=O)C(C)(C)C)cc4)CC3)cc2C)c1 [Compound B2L026-01, N-tert-Butylsulfonyl-4-[4-[4-(5-ethoxypyridin-3-yl)-3-methylbenzoyl]piperazin-1-yl]benzamide] |  |  | 0.0% | 0.0%
CCOc1cccc(-c2cnn(-c3cc(C(=O)N4CCN(c5ccc(C(=O)NS(=O)(=O)C(C)(C)C)nn5)CC4)cc(C(F)(F)F)c3)c2)c1 [Compound B2L021-01, N-tert-Butylsulfonyl-6-[4-[3-[4-(3-ethoxyphenyl)pyrazol-1-yl]-5-(trifluoromethyl)benzoyl]piperazin-1-yl]pyridazine-3-carboxamide] |  |  | 0.0% | −14.9%
CCOc1cncc(-c2csc(C(=O)N3CCN(c4ccc(C(=O)NS(=O)(=O)CCC(F)(F)F)cc4)CC3)c2)c1 [Compound B2N024-01, 4-[4-[4-(5-Ethoxypyridin-3-yl)thiophene-2-carbonyl]piperazin-1-yl]-N-(3,3,3-trifluoropropylsulfonyl)benzamide] | 0.0% | 0.0% |  | 
CCOc1cncc(-c2ccc(CN3CCN(c4ccc(C(=O)NS(=O)(=O)C(C)(C)C)cc4)CC3)cc2C)c1 [Compound B2L048-01, N-tert-Butylsulfonyl-4-[4-[[4-(5-ethoxypyridin-3-yl)-3-methylphenyl]methyl]piperazin-1-yl]benzamide] |  |  | 3.9% | −5.0%

Further lines, results first:

ASMS ratio (%) n = 1 [1] | ASMS ratio (%) n = 2 [2] | ASMS ratio (%) n = 1 [3] | ASMS ratio (%) n = 2 [4] | Compound
8.6% | 0.0% |  |  | CCOc1cccc(-c2ccc(CN3CCN(c4ccc(C(=O)NS(=O)(=O)c5ccc(NCCSc6ccccc6)c(C(F)(F)F)c5)nn4)CC3)c(CC)c2)c1 [Compound B2R075-01, 6-[4-[[4-(3-Ethoxyphenyl)-2-ethylphenyl]methyl]piperazin-1-yl]-N-[4-(2-phenylsulfanylethylamino)-3-(trifluoromethyl)phenyl]sulfonylpyridazine-3-carboxamide]
−3.7% | −4.1% |  |  | CCOc1cncc(-c2cnn(-c3cc(C(=O)N4CCN(c5ccc(C(=O)NS(=O)(=O)c6ccc(NCCSc7ccccc7)c(C(F)(F)F)c6)cc5)CC4)cc(C(F)(F)F)c3)c2)c1 [Compound B2R044-01, 4-[4-[3-[4-(5-Ethoxypyridin-3-yl)pyrazol-1-yl]-5-(trifluoromethyl)benzoyl]piperazin-1-yl]-N-[4-(2-phenylsulfanylethylamino)-3-(trifluoromethyl)phenyl]sulfonylbenzamide]
2.6% | 0.2% |  |  | CCOc1cncc(-c2cc(C(=O)N3CCN(c4ccc(C(=O)NS(=O)(=O)c5ccc(NCCSc6ccccc6)c(C(F)(F)F)c5)cc4)CC3)cc(C(F)(F)F)c2)c1 [Compound B2R040-01, 4-[4-[3-(5-Ethoxypyridin-3-yl)-5-(trifluoromethyl)benzoyl]piperazin-1-yl]-N-[4-(2-phenylsulfanylethylamino)-3-(trifluoromethyl)phenyl]sulfonylbenzamide]
 |  |  | 0.0% | CCOc1cncc(-c2cc(OC)c(CN3CCN(c4ccc(C(=O)NS(=O)(=O)C(C)(C)C)cc4)CC3)c(OC)c2)c1 [Compound B2L060-01]
3.9% | 0.0% |  |  | CCOc1cncc(-c2cc(OC)c(CN3CCN(c4ccc(C(=O)NS(=O)(=O)c5ccc(NCCSc6ccccc6)c(C(F)(F)F)c5)cc4)CC3)c(OC)c2)c1 [Compound B2R060-01, 4-[4-[[4-(5-Ethoxypyridin-3-yl)-2,6-dimethoxyphenyl]methyl]piperazin-1-yl]-N-[4-(2-phenylsulfanylethylamino)-3-(trifluoromethyl)phenyl]sulfonylbenzamide]
